Experimental data reported in the supplement of paper PMC4862054.

Key:
Conditions in all cases: incubation time: 72 h
MCF-10A = assay: normalised response (% of control), CellTiter-Glo; higher = more viable cells (100 = DMSO, 0 = benzethonium chloride kill control)
Procedure, shortened: (§1)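 Each entry is the normalised signal at a single concentration within a series. The series comprised 5 concentrations in 10-fold steps over a compound-specific 10,000-fold range, placed in 384-well plates into which breast cancer cell lines were seeded as 20 µl suspension and incubated 72 h. CellTox Green (485/520 nm) fluorescence and then CellTiter-Glo luminescence were read, with signals normalised per plate to 0.1 % DMSO (100) and a positive kill control (0).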

CAL-120 = assay: as above
Procedure, shortened: as §1

DU-4475 [1] = assay: as above
Procedure, shortened: as §1

HDQ-P1 [2] = assay: as above
Procedure, shortened: as §1

BT-549 = assay: as above
Procedure, shortened: as §1

HCC1143 = assay: as above
Procedure, shortened: as §1

BT-474 = assay: as above
Procedure, shortened: as §1

CAL-148 [3] = assay: as above
Procedure, shortened: as §1

HCC1937 = assay: as above
Procedure, shortened: as §1

Hs578T = assay: as above
Procedure, shortened: as §1

MDA-MB-468 [4] = assay: as above
Procedure, shortened: as §1

CAL-51 [5] = assay: as above
Procedure, shortened: as §1

HCC1599 = assay: as above
Procedure, shortened: as §1

MDA-MB-453 [6] = assay: as above
Procedure, shortened: as §1

MDA-MB-436 = assay: as above
Procedure, shortened: as §1

MFM-223 [7] = assay: as above
Procedure, shortened: as §1

CAL-85-1 [8] = assay: as above
Procedure, shortened: as §1

SK-BR-3 = assay: as above
Procedure, shortened: as §1

MDA-MB-231 = assay: as above
Procedure, shortened: as §1

DU-4475 [9] = assay: normalised viability (% of control), CellTiter-Blue; higher = more viable cells (about 100 = DMSO control)
Procedure, shortened: (§2)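 After 72 h on compound-loaded 384-well plates, breast cancer cell lines received 2.5 µl CellTiter-Blue reagent for 2 h at 37 °C. Fluorescence at 560/590 nm was scaled per plate so that vehicle was 100 and a positive kill control was 0. The value stands for normalised viability at a single listed concentration of the series.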

HDQ-P1 [10] = assay: as above
Procedure, shortened: as §2

CAL-148 [11] = assay: as above
Procedure, shortened: as §2

CAL-51 [12] = assay: as above
Procedure, shortened: as §2

MDA-MB-453 [13] = assay: as above
Procedure, shortened: as §2

CAL-85-1 [14] = assay: as above
Procedure, shortened: as §2

MDA-MB-468 [15] = assay: normalised response (% of control), CellTox Green; higher = less cell death (100 = DMSO, 0 = benzethonium chloride kill control)
Procedure, shortened: as §1

MDA-MB-453 [16] = assay: as above
Procedure, shortened: as §1

MFM-223 [17] = assay: as above
Procedure, shortened: as §1

CAL-85-1 [18] = assay: as above
Procedure, shortened: as §1

Structure (SMILES) | normalised response (MCF-10A) [%] | normalised response (CAL-120) [%] | normalised response (DU-4475 [1]) [%] | normalised response (HDQ-P1 [2]) [%] | normalised response (BT-549) [%] | normalised response (HCC1143) [%] | normalised response (BT-474) [%] | normalised response (CAL-148 [3]) [%] | normalised response (HCC1937) [%] | normalised response (Hs578T) [%] | normalised response (MDA-MB-468 [4]) [%] | normalised response (CAL-51 [5]) [%] | normalised response (HCC1599) [%] | normalised response (MDA-MB-453 [6]) [%] | normalised response (MDA-MB-436) [%] | normalised response (MFM-223 [7]) [%] | normalised response (CAL-85-1 [8]) [%] | normalised response (SK-BR-3) [%] | normalised response (MDA-MB-231) [%] | normalised viability (DU-4475 [9]) [%] | normalised viability (HDQ-P1 [10]) [%] | normalised viability (CAL-148 [11]) [%] | normalised viability (CAL-51 [12]) [%] | normalised viability (MDA-MB-453 [13]) [%] | normalised viability (CAL-85-1 [14]) [%] | normalised response (MDA-MB-468 [15]) [%] | normalised response (MDA-MB-453 [16]) [%] | normalised response (MFM-223 [17]) [%] | normalised response (CAL-85-1 [18]) [%]
NC1(c2ccc(-c3nc4ccn5c(=O)[nH]nc5c4cc3-c3ccccc3)cc2)CCC1 [MK-2206] (1000 nM) | 83.3 | 92.5 | 87.3 | 81.4 | 69.3 | 84 | 95.4 | 59.7 | 86 | 87.2 | 83 | 84.2 | 72.6 | 36.6 | 98.2 | 46.9 | 86.1 | 52.1 | 86.1 | 53.5 | 86.4 | 36.8 | 45.3 | 11 | 58.4 | 147 | 96.7 | 95.9 | 69
O=C(c1cc(Cc2n[nH]c(=O)c3ccccc23)ccc1F)N1CCN(C(=O)C2CC2)CC1 [Olaparib] (10000 nM) | 92.8 | 82.3 | 85.7 | 87.8 | 78.1 | 87.3 | 67.5 | 64.6 | 91.6 | 84.6 | 69.5 | 66.1 | 95.3 | 144 | 62.2 | 88.5 | 87.5 | 78.7 | 77.2 | 71.7 | 96.5 | 56.1 | 39.3 | 78.1 | 80.7 | 112 | 109 | 102 | 105
COc1cc2c(N3CCN(C(=O)Nc4ccc(OC(C)C)cc4)CC3)ncnc2cc1OCCCN1CCCCC1 [Tandutinib] (1000 nM) | 87 | 106 | 97.7 | 99.1 | 102 | 95.7 | 97.7 | 97.8 | 100 | 92.3 | 99.7 | 117 | 106 | 99.1 | 109 | 98.8 | 98 | 99 | 106 | 58.4 | 128 | 71.1 | 58 | 92.9 | 93 | 120 | 101 | 89 | 105
C[C@@H](C(=O)O)c1ccc(-c2ccccc2)c(F)c1 [Tarenflurbil] (10000 nM) | 99.4 | 104 | 96.7 | 98.5 | 99 | 98.7 | 95.2 | 88.3 | 96.9 | 97.5 | 91.5 | 120 | 92.4 | 93.7 | 108 | 92.8 | 98.8 | 93.3 | 98.7 | 95.1 | 129 | 89.9 | 111 | 84 | 91.4 | 153 | 103 | 92.6 | 110
